Laboratory results: patent US8063049B2, “Inhibitors of MEK” (Ardea Biosciences, Inc., priority 2007, dated 2011)

What was measured:
[1] = target: T1, Human GST-MEK1CA (constitutively active MEK1, Ser218Asp and Ser222Asp) (Homo sapiens, UniProt Q02750, S218D/S222D); test: MEK1 enzymatic activity assay (33P incorporation, MEK1CA/ERK2/MBP); assay type: biochemical; conditions: MEK1CA with ERK2, MBP and [γ33P]ATP; 30 min preincubation, 60 min reaction
T1 construct: GST; made in house; host or cells: Escherichia coli
T1 sequence (Q02750 whole entry S218D/S222D): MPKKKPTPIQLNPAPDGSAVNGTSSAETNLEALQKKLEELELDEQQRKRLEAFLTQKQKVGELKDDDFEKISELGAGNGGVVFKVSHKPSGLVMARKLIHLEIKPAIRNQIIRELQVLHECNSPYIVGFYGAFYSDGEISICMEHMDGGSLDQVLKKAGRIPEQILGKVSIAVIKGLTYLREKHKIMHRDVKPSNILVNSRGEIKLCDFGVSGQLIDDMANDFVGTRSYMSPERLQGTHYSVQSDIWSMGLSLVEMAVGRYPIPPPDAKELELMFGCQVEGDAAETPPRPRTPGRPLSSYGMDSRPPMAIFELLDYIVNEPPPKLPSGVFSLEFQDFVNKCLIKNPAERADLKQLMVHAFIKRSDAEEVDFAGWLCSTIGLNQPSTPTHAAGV
Source text: Materials and preparation of reagents: Human GST-MEK1 and the constitutively […] active allele GST-MEK1^CA (harboring the mutations Ser218Asp and Ser222Asp) can be subcloned into the yeast expression vector pGEM4Z (Promega, Madison, Wis.) from the wild type human MEK1 cDNA. GST-MEK1CA was expressed in Escherichia coli and can be partially purified using Glutathione Sepharose 4B affinity resin (Amersham Pharmacia Biotech, Piscataway, N.J.). The ERK2 allele can be subcloned from MAPK2/Erk2 cDNA (wild type) in […] pUSEamp (Upstate Biotechnology, Inc., Waltham, Mass.) into the vector pET21a (Novagen, Madison, Wis.) resulting in an N-terminal histidine-tagged mouse ERK2 allele. ERK2 can be expressed and purified to homogeneity [Zhang, 1993 #33]. Myelin basic protein (MBP) can be purchased from Gibco BRL (Rockville, Md.). EasyTides adenosine 5′-triphosphate (ATP) ([γ-33P]) (NEN Perkin Elmer, Wellesley, Mass.) is the source of radiolabel for all kinase reactions. Activated Raf-1 (truncated) and activated MAPKinase 2/ERK2 can be purchased from Upstate, Inc. (Lake Placid, N.Y.). 4-20% Criterion Precast gels can be purchased from Bio-Rad (Hercules, Calif.).
Determination of enzymatic activity: Compounds are diluted from dimethylsulfoxide (DMSO) stocks into 1×HMNDE (20 mM HEPES pH 7.2, 1 mM MgCl2, 100 mM NaCl, 1.25 mM DTT, 0.2 mM EDTA). A typical 25-microliter assay contained 0.002 nanomoles MEK1^CA, 0.02 nanomoles ERK2, 0.25 nanomoles MBP, 0.25 nanomoles unlabeled ATP, and 0.1 μCi [γ33P] ATP. The screening assay essentially comprises four additions. Five μl of diluted compound are dispensed to 96-well assay plates. Ten μl of 2.5× enzyme cocktail (MEK1^CA and ERK2 only) are then added to each well followed by a preincubation for 30 minutes at ambient temperature. Ten μl of 2.5× substrate cocktail (labeled and unlabeled ATP plus MBP) are then added, followed by incubation for 60 minutes at ambient temperature. Finally, 100 μl of 10% trichloroacetic acid (TCA) are added and incubated for 30 minutes at room temperature to halt the reaction and precipitate radiolabeled protein products. Reaction products are harvested on glass fiber 96 well filter plates prewetted with water and 1% pyrophosphate. The filter plate is then washed 5 times with water. Water is displaced by absolute ethanol and the plate is allowed to air dry for 30 minutes at room temperature. A back seal is applied manually and 40 μl of scintillation cocktail are dispensed to each well. A top seal is applied and the plate is counted in the TopCount for two seconds per well.

[2] = test system: phosphorylated ERK in MDA-MB-231 breast cancer cells; test: Western blotting for phosphorylated ERK in EGF-stimulated MDA-MB-231 cells; assay type: cell-based; conditions: Homo sapiens, 30 min compound, 100 ng/ml EGF for 5 min, phospho-ERK Western blot
Experimental: Effects of compounds in the cell can be determined by Western blotting for phosphorylated ERK. MDA-MB-231 breast cancer cells are plated in a 48 well plate at 20,000 cells per well and are grown in a 37° humidified CO2 incubator. The following day, the growth media (DMEM+10% fetal bovine serum) is removed and replaced with starve media (DMEM+0.1% fetal bovine serum). Cells are incubated in the starve media for sixteen hours and then treated with a range of compound concentrations for thirty minutes.
After incubation with compound, cells are stimulated with 100 ng/ml EGF for five minutes. The cells are then lysed and analyzed by Western blot using a monoclonal antibody raised to phosphorylated ERK. The signal is amplified using a secondary antibody conjugated to a near-IR dye and detected on a Licor Odyssey scanner.

SMILES: Cc1noc2c(F)c(Nc3ccc(I)cc3F)c(NS(=O)(=O)C3(CCO)CC3)cc12 [Example 4, 1-(2-hydroxyethyl)-N-(7-fluoro-6-(2-fluoro-4-iodophenylamino)-3-methylbenzo[d]isoxazol-5-yl)cyclopropane-1-sulfonamide]
- IC50 [1]: 10 to 100 nM
- EC50 [2]: 1 to 10 nM

SMILES: Cc1noc2c(F)c(Nc3ccc(I)cc3F)c(NS(=O)(=O)C3CC3)cc12 [Example 3, N-(7-fluoro-6-(2-fluoro-4-iodophenylamino)-3-methylbenzo[d]isoxazol-5-yl)cyclopropanesulfonamide]
- IC50 [1]: 10 to 100 nM
- EC50 [2]: 1 to 10 nM

SMILES: Cc1noc2c(F)c(Nc3ccc(Br)cc3Cl)c(NS(=O)(=O)C3CC3)cc12 [Example 6, N-(7-fluoro-6-(4-bromo-2-chlorophenylamino)-3-methylbenzo[d]isoxazol-5-yl)cyclopropanesulfonamide]
- IC50 [1]: 100 to 1000 nM
- EC50 [2]: 1 to 10 nM

SMILES: Cc1nn(C)c2c(F)c(Nc3ccc(I)cc3F)c(NS(=O)(=O)C3CC3)cc12 [Example 30, N-(6-(2-fluoro-4-iodophenylamino)-7-fluoro-1,3-dimethyl-1H-indazol-5-yl)cyclopropanesulfonamide]
- IC50 [1]: 10000 to 50000 nM
- EC50 [2]: 100 to 1000 nM

SMILES: O=S(=O)(Nc1cn2ccnc2c(Cl)c1Nc1ccc(Br)cc1Cl)C1(CCO)CC1 [Example 10, N-(7-(4-bromo-2-chlorophenylamino)-8-chloroimidazo[1,2-a]pyridin-6-yl)-1-(2-hydroxyethyl)cyclopropane-1-sulfonamide]
- IC50 [1]: 100 to 1000 nM
- EC50 [2]: 10 to 100 nM

SMILES: Cn1cnc2c(F)c(Nc3ccc(I)cc3F)c(NS(=O)(=O)C3(CCO)CC3)cc21 [Example 2, N-(4-fluoro-5-(2-fluoro-4-iodophenylamino)-1-methyl-1H-benzo[d]imidazol-6-yl)-1-(2-hydroxyethyl)cyclopropane-1-sulfonamide]
- IC50 [1]: 10 to 100 nM
- EC50 [2]: 1 to 10 nM

SMILES: Cc1noc2c(F)c(Nc3ccc(I)cc3F)c(NS(=O)(=O)C3(CC(O)CO)CC3)cc12 (centres unmarked) [Example 5, 1-(2,3-dihydroxypropyl)-N-(7-fluoro-6-(2-fluoro-4-iodophenylamino)-3-methylbenzo[d]isoxazol-5-yl)cyclopropane-1-sulfonamide]
- IC50 [1]: 1 to 10 nM
- EC50 [2]: 0.1 to 1 nM

SMILES: O=S(=O)(Nc1cn2ccnc2c(Cl)c1Nc1ccc(I)cc1F)C1(CCO)CC1 [Example 12, N-(8-chloro-7-(2-fluoro-4-iodophenylamino)imidazo[1,2-a]pyridin-6-yl)-1-(2-hydroxyethyl)cyclopropane-1-sulfonamide]
- IC50 [1]: 10 to 100 nM
- EC50 [2]: 1 to 10 nM

SMILES: Cc1ncnc2c(F)c(Nc3ccc(I)cc3F)c(NS(=O)(=O)C3CC3)cc12 [Example 34, N-(7-(2-fluoro-4-iodophenylamino)-8-fluoro-4-methylquinazolin-6-yl)cyclopropanesulfonamide]
- IC50 [1]: 10000 to 50000 nM
- EC50 [2]: 100 to 1000 nM

SMILES: Cc1c(Nc2ccc(I)cc2F)c(NS(=O)(=O)C2CC2)cn2ccnc12 [Example 14, N-(7-(2-fluoro-4-iodophenylamino)-8-methylimidazo[1,2-a]pyridin-6-yl)cyclopropanesulfonamide]
- IC50 [1]: 10 to 100 nM
- EC50 [2]: 0.1 to 1 nM

SMILES: Cc1c2cc(NS(=O)(=O)C3CC3)c(Nc3ccc(I)cc3F)c(F)c2nn1C [Example 29, N-(6-(2-fluoro-4-iodophenylamino)-7-fluoro-2,3-dimethyl-2H-indazol-5-yl)cyclopropanesulfonamide]
- IC50 [1]: 1000 to 10000 nM
- EC50 [2]: 1 to 10 nM

SMILES: O=S(=O)(Nc1cn2ccnc2c(Cl)c1Nc1ccc(Br)cc1Cl)C1CC1 [Example 9, N-(7-(4-bromo-2-chlorophenylamino)-8-chloroimidazo[1,2-a]pyridin-6-yl)cyclopropanesulfonamide]
- IC50 [1]: 100 to 1000 nM
- EC50 [2]: 10 to 100 nM

SMILES: Cc1c(Nc2ccc(Br)cc2Cl)c(NS(=O)(=O)C2(CCO)CC2)cn2ccnc12 [Example 18, N-(7-(4-bromo-2-chlorophenylamino)-8-methylimidazo[1,2-a]pyridin-6-yl)-1-(2-hydroxyethyl)cyclopropane-1-sulfonamide]
- IC50 [1]: 1000 to 10000 nM
- EC50 [2]: 10 to 100 nM

SMILES: Cc1onc2c(F)c(Nc3ccc(I)cc3F)c(NS(=O)(=O)C3CC3)cc12 [Example 7, N-(7-fluoro-6-(2-fluoro-4-iodophenylamino)-3-methylbenzo[c]isoxazol-5-yl)cyclopropanesulfonamide]
- IC50 [1]: 10 to 100 nM
- EC50 [2]: 10 to 100 nM

SMILES: Cc1c(Nc2ccc(Br)cc2Cl)c(NS(=O)(=O)C2CC2)cn2ccnc12 [Example 17, N-(7-(4-bromo-2-chlorophenylamino)-8-methylimidazo[1,2-a]pyridin-6-yl)cyclopropanesulfonamide]
- IC50 [1]: 100 to 1000 nM
- EC50 [2]: 10 to 100 nM

SMILES: Cc1c(Nc2ccc(I)cc2F)c(NS(=O)(=O)C2(CC(O)CO)CC2)cn2ccnc12 (centres unmarked) [Example 16, 1-(2,3-dihydroxypropyl)-N-(7-(2-fluoro-4-iodophenylamino)-8-methylimidazo[1,2-a]pyridin-6-yl)cyclopropane-1-sulfonamide]
- IC50 [1]: 10 to 100 nM
- EC50 [2]: 10 to 100 nM
